# Results reported in patent publication US20070049564A1 (Wyeth, priority 2005, published 2007).
# Where two headings read alike, the source gives them in different places.
# What was measured:
# S. pyogenes GC 4563 = test: MIC, broth microdilution; conditions: Streptococcus pyogenes, GC4563, S. pyogenes GC 4563
# c. albicans GC 3066 = test: MIC, broth microdilution
# E. coli GC 2234 = test: MIC, broth microdilution; conditions: Escherichia coli, GC2234, E. coli GC 2234
# E. coli GC 2236 = test: MIC, broth microdilution; conditions: Escherichia coli, GC2236, E. coli GC 2236
# E. faecalis GC 2242 = test: MIC, broth microdilution; conditions: Enterococcus faecalis, GC2242, E. faecalis GC 2242
# P. aeruginosa GC 2214 = test: MIC, broth microdilution; conditions: Pseudomonas aeruginosa, GC2214, P. aeruginosa GC 2214
# Method: (§1) Antimicrobial susceptibility testing. The in vitro activities of the antibiotics are determined by the broth microdilution method as recommended by the National Committee for Clinical Laboratory Standards (NCCLS) (1). Mueller-Hinton II broth (MHBII)(BBL Cockeysville, Md.) is the medium employed in the testing procedures. Microtiter plates containing serial dilutions of each antimicrobial agent are inoculated with each organism to yield the appropriate density (10^5 CFU/ml) in a 100 μl final volume. The plates are incubated for 18-22 hours at 35° C. in ambient air.
# Representative compounds were first incubated in mouse serum for an hour prior to the in vitro testing against a panel of selected gram-positive and gram-negative bacteria strains. All compounds were also pre-incubated in water for an hour prior to testing as control.
# E. coli GC 1073 = test: MIC, broth microdilution; conditions: Escherichia coli, GC1073, E. coli GC 1073
# S. aureus GC 2216 = test: MIC, broth microdilution; conditions: Staphylococcus aureus, GC2216, S. aureus GC 2216
# E. coli GC 2271 = test: MIC, broth microdilution; conditions: Escherichia coli, GC2271, E. coli GC 2271
# E. faecium GC 4556 = test: MIC, broth microdilution; conditions: Enterococcus faecium, GC4556, E. faecium GC 4556
# S. pneumoniae+ GC 4465 = test: MIC, broth microdilution; conditions: Streptococcus pneumoniae, S. pneumoniae+ GC 4465
# E. coli GC 2270 = test: MIC, broth microdilution; conditions: Escherichia coli, GC2270, E. coli GC 2270
# S. aureus GC 1131 = test: MIC, broth microdilution; conditions: Staphylococcus aureus, GC1131, S. aureus GC 1131
# S. epidermidis GC 4935 = test: MIC, broth microdilution; conditions: Staphylococcus epidermidis, GC4935, S. epidermidis GC 4935
# S. aureus GC 6335 = test: MIC, broth microdilution; conditions: Staphylococcus aureus, GC6335, S. aureus GC 6335
# E. coli GC 2235 = test: MIC, broth microdilution; conditions: Escherichia coli, GC2235, E. coli GC 2235
# E. coli GC 4559 = test: MIC, broth microdilution; conditions: Escherichia coli, GC4559, E. coli GC 4559
# Method: as §1
# Representative compounds were first incubated in mouse serum for an hour prior to the in vitro testing against a panel of selected gram-positive and gram-negative bacteria strains. All compounds were also pre-incubated in water for an hour prior to testing as control. Representative compounds of Formula I were incubated in human serum prior to MIC determination.
# E. coli GC 2233 = test: MIC, broth microdilution; conditions: Escherichia coli, GC2233, E. coli GC 2233
# S. aureus GC 1079 = test: MIC, broth microdilution; conditions: Staphylococcus aureus, GC1079, S. aureus GC 1079
# Staph. aureus Smith = test: In vivo activity (oral, iv; ED50) against Staph. aureus Smith in mice
# Method: Representative examples of compounds of Formula I were tested for the oral efficacy using S. aureus Smith in mice.
# [1] = c. albicans GC 3066, Water pre-incubation
# [2] = Staphylococcus aureus, in Mus musculus, po, read-out: ED50 Staph Smith SOD
# [3] = iv, read-out: ED50 Staph Smith SIV
SMILES,MIC (S. pyogenes GC 4563; Mouse Serum pre-incubation) [µg/mL],MIC (S. pyogenes GC 4563; Water pre-incubation) [µg/mL],"MIC (c. albicans GC 3066; Candida albicans, GC3066) [µg/mL]",MIC (c. albicans GC 3066; [1]) [UG/ML],MIC (E. coli GC 2234; Mouse Serum pre-incubation) [µg/mL],MIC (E. coli GC 2234; Water pre-incubation) [µg/mL],MIC (E. coli GC 2236; Mouse Serum pre-incubation) [µg/mL],MIC (E. coli GC 2236; Water pre-incubation) [µg/mL],MIC (E. faecalis GC 2242; Mouse Serum pre-incubation) [µg/mL],MIC (E. faecalis GC 2242; Water pre-incubation) [µg/mL],MIC (P. aeruginosa GC 2214; Mouse Serum pre-incubation) [µg/mL],MIC (P. aeruginosa GC 2214; Water pre-incubation) [µg/mL],MIC (E. coli GC 1073; Mouse Serum pre-incubation) [µg/mL],MIC (E. coli GC 1073; Water pre-incubation) [µg/mL],MIC (S. aureus GC 2216; Mouse Serum pre-incubation) [µg/mL],MIC (S. aureus GC 2216; Water pre-incubation) [µg/mL],MIC (E. coli GC 2271; Mouse Serum pre-incubation) [µg/mL],MIC (E. coli GC 2271; Water pre-incubation) [µg/mL],MIC (E. faecium GC 4556; Mouse Serum pre-incubation) [µg/mL],MIC (E. faecium GC 4556; Water pre-incubation) [µg/mL],further results
"CCCN(CC(=O)Nc1cc(N(C)C)c2c(c1O)C(=O)C1=C(O)[C@]3(O)C(=O)C(C(N)=O)=C(O)[C@@H](N(C)C)[C@@H]3C[C@@H]1C2)C(=O)OCOC(=O)C(C)C [Example 10, ({[(2-{[(5aR,6aS,7S,10aS)-9-(aminocarbonyl)-4,7-bis(dimethylamino)-1,8,10a,11-tetrahydroxy-10,12-dioxo-5,5a,6,6a,7,10,10a,12-octahydrotetracen-2-yl]amino}-2-oxoethyl)(propyl)amino]carbonyl}oxy)methyl 2-methylpropanoate]",< 0.06,< 0.06,> 64,>64,0.5,8,0.5,8,0.25,0.5,16,> 64,0.5,16,0.25,0.5,0.25,8,0.25,0.5,MIC (S. pneumoniae+ GC 4465; Mouse Serum pre-incubation): 1 µg/mL; MIC (S. pneumoniae+ GC 4465; Water pre-incubation): 1 µg/mL; MIC (E. coli GC 2270; Mouse Serum pre-incubation): 0.5 µg/mL; MIC (E. coli GC 2270; Water pre-incubation): 8 µg/mL; MIC (S. aureus GC 1131; Mouse Serum pre-incubation): 0.12 µg/mL; MIC (S. aureus GC 1131; Water pre-incubation): 0.12 µg/mL; MIC (S. epidermidis GC 4935; Mouse Serum pre-incubation): 0.5 µg/mL; MIC (S. epidermidis GC 4935; Water pre-incubation): 1 µg/mL; MIC (S. aureus GC 6335; Mouse Serum pre-incubation): 0.25 µg/mL; MIC (S. aureus GC 6335; Water pre-incubation): 0.5 µg/mL; MIC (E. coli GC 2235; Mouse Serum pre-incubation): 0.25 µg/mL; MIC (E. coli GC 2235; Water pre-incubation): 4 µg/mL; MIC (E. coli GC 4559; Mouse Serum pre-incubation): 0.5 µg/mL; MIC (E. coli GC 4559; Water pre-incubation): 16 µg/mL; MIC (E. coli GC 2233; Mouse Serum pre-incubation): 0.5 µg/mL; MIC (E. coli GC 2233; Water pre-incubation): 8 µg/mL; MIC (S. aureus GC 1079; Mouse Serum pre-incubation): 0.5 µg/mL; MIC (S. aureus GC 1079; Water pre-incubation): 1 µg/mL; ED50 (Staph. aureus Smith; [2]): 13.6 mg/kg; ED50 (Staph. aureus Smith; [3]): 0.36 mg/kg
"CCCCN(CC(=O)Nc1cc(N(C)C)c2c(c1O)C(=O)C1=C(O)[C@]3(O)C(=O)C(C(N)=O)=C(O)[C@@H](N(C)C)C3CC1C2)C(=O)OCOC(=O)C(C)C (stereo partly drawn) [Example 1, ({[(2-{[(7S,10aS)-9-(aminocarbonyl)-4,7-bis(dimethylamino)-1,8,10a,11-tetrahydroxy-10,12-dioxo-5,5a,6,6a,7,10,10a,12-octahydrotetracen-2-yl]amino}-2-oxoethyl)(butyl)amino]carbonyl}oxy)methyl 2-methylpropanoate]",0.25,0.5,> 64,>64,0.5,16,1,16,1,4,32,> 64,1,32,1,4,0.5,16,1,4,"MIC (S. pneumoniae+ GC 4465; Mouse Serum pre-incubation): 2 µg/mL; MIC (S. pneumoniae+ GC 4465; Water pre-incubation): 2 µg/mL; MIC (E. coli GC 2270; Mouse Serum pre-incubation): 0.5 µg/mL; MIC (E. coli GC 2270; Water pre-incubation): 16 µg/mL; MIC (S. aureus GC 1131; Mouse Serum pre-incubation): 1 µg/mL; MIC (S. aureus GC 1131; Water pre-incubation): 4 µg/mL; MIC (S. epidermidis GC 4935; Mouse Serum pre-incubation): 2 µg/mL; MIC (S. epidermidis GC 4935; Water pre-incubation): 8 µg/mL; MIC (S. aureus GC 6335; Mouse Serum pre-incubation): 2 µg/mL; MIC (S. aureus GC 6335; Water pre-incubation): 4 µg/mL; MIC (E. coli GC 2235; Mouse Serum pre-incubation): 0.5 µg/mL; MIC (E. coli GC 2235; Water pre-incubation): 16 µg/mL; MIC (E. coli GC 4559; Mouse Serum pre-incubation): 1 µg/mL; MIC (E. coli GC 4559; Water pre-incubation): 32 µg/mL; MIC (E. coli GC 2233; Mouse Serum pre-incubation): 1 µg/mL; MIC (E. coli GC 2233; Water pre-incubation): 16 µg/mL; MIC (S. aureus GC 1079; Mouse Serum pre-incubation): 2 µg/mL; MIC (S. aureus GC 1079; Water pre-incubation): 4 µg/mL; ED50 (Staph. aureus Smith; Staphylococcus aureus, in Mus musculus, iv, read-out: ED50 SIV (Staph aureus Smith)): 0.6 mg/kg; ED50 (Staph. aureus Smith; Staphylococcus aureus, in Mus musculus, po, read-out: ED50 SOD (Staph aureus Smith)): 4.7 mg/kg"
"CCCN(CC(=O)Nc1cc(N(C)C)c2c(c1O)C(=O)C1=C(O)[C@]3(O)C(=O)C(C(N)=O)=C(O)[C@@H](N(C)C)[C@@H]3C[C@@H]1C2)C(=O)OCOC(=O)c1ccc(OC)cc1 [Example 6, ({[(2-{[(5aR,6aS,7S,10aS)-9-(aminocarbonyl)-4,7-bis(dimethylamino)-1,8,10a,11-tetrahydroxy-10,12-dioxo-5,5a,6,6a,7,10,10a,12-octahydrotetracen-2-yl]amino}-2-oxoethyl)(propyl)amino]carbonyl}oxy)methyl 4-methoxybenzoate]",0.25,0.25,> 64,>64,1,16,2,8,1,2,32,> 64,2,16,0.5,2,1,8,1,2,MIC (S. pneumoniae+ GC 4465; Mouse Serum pre-incubation): 2 µg/mL; MIC (S. pneumoniae+ GC 4465; Water pre-incubation): 2 µg/mL; MIC (E. coli GC 2270; Mouse Serum pre-incubation): 1 µg/mL; MIC (E. coli GC 2270; Water pre-incubation): 8 µg/mL; MIC (S. aureus GC 1131; Mouse Serum pre-incubation): 0.5 µg/mL; MIC (S. aureus GC 1131; Water pre-incubation): 1 µg/mL; MIC (S. epidermidis GC 4935; Mouse Serum pre-incubation): 1 µg/mL; MIC (S. epidermidis GC 4935; Water pre-incubation): 4 µg/mL; MIC (S. aureus GC 6335; Mouse Serum pre-incubation): 0.5 µg/mL; MIC (S. aureus GC 6335; Water pre-incubation): 2 µg/mL; MIC (E. coli GC 2235; Mouse Serum pre-incubation): 1 µg/mL; MIC (E. coli GC 2235; Water pre-incubation): 8 µg/mL; MIC (E. coli GC 4559; Mouse Serum pre-incubation): 2 µg/mL; MIC (E. coli GC 4559; Water pre-incubation): 16 µg/mL; MIC (E. coli GC 2233; Mouse Serum pre-incubation): 2 µg/mL; MIC (E. coli GC 2233; Water pre-incubation): 16 µg/mL; MIC (S. aureus GC 1079; Mouse Serum pre-incubation): 2 µg/mL; MIC (S. aureus GC 1079; Water pre-incubation): 4 µg/mL; ED50 (Staph. aureus Smith; [2]): 20.1 mg/kg; ED50 (Staph. aureus Smith; [3]): 0.87 mg/kg
"CCCN(CC(=O)Nc1cc(N(C)C)c2c(c1O)C(=O)C1=C(O)[C@]3(O)C(=O)C(C(N)=O)=C(O)[C@@H](N(C)C)[C@@H]3C[C@@H]1C2)C(=O)OCc1ccccc1 [Example 14, benzyl 2-{[(5aR,6aS,7S,10aS)-9-(aminocarbonyl)-4,7-bis(dimethylamino)-1,8,10a,11-tetrahydroxy-10,12-dioxo-5,5a,6,6a,7,10,10a,12-octahydrotetracen-2-yl]amino}-2-oxoethyl(propyl)carbamate]",2,4,> 64,>64,> 64,> 64,> 64,> 64,2,8,> 64,> 64,> 64,> 64,2,4,> 64,> 64,4,8,MIC (S. pneumoniae+ GC 4465; Mouse Serum pre-incubation): 4 µg/mL; MIC (S. pneumoniae+ GC 4465; Water pre-incubation): 4 µg/mL; MIC (E. coli GC 2270; Mouse Serum pre-incubation): > 64 µg/mL; MIC (E. coli GC 2270; Water pre-incubation): > 64 µg/mL; MIC (S. aureus GC 1131; Mouse Serum pre-incubation): 1 µg/mL; MIC (S. aureus GC 1131; Water pre-incubation): 2 µg/mL; MIC (S. epidermidis GC 4935; Mouse Serum pre-incubation): 8 µg/mL; MIC (S. epidermidis GC 4935; Water pre-incubation): 8 µg/mL; MIC (S. aureus GC 6335; Mouse Serum pre-incubation): 1 µg/mL; MIC (S. aureus GC 6335; Water pre-incubation): 4 µg/mL; MIC (E. coli GC 2235; Mouse Serum pre-incubation): 32 µg/mL; MIC (E. coli GC 2235; Water pre-incubation): 64 µg/mL; MIC (E. coli GC 4559; Mouse Serum pre-incubation): > 64 µg/mL; MIC (E. coli GC 4559; Water pre-incubation): > 64 µg/mL; MIC (E. coli GC 2233; Mouse Serum pre-incubation): > 64 µg/mL; MIC (E. coli GC 2233; Water pre-incubation): > 64 µg/mL; MIC (S. aureus GC 1079; Mouse Serum pre-incubation): 1 µg/mL; MIC (S. aureus GC 1079; Water pre-incubation): 2 µg/mL; ED50 (Staph. aureus Smith; [2]): > 32 mg/kg; ED50 (Staph. aureus Smith; [3]): > 2 mg/kg
